Target: T1, Human PKK (Homo sapiens, UniProt P03952)
T1 construct: purchased Enzyme Research Laboratories
Experiment: Inhibition of PKK using an endpoint assay (human PKK)
Type: biochemical
Conditions: fluorogenic substrate H-Pro-Phe-Arg-AMC, 1 h room temperature, method names human or rat PKK, table does not say which
Description: The ability of compounds of formula (I) to inhibit plasma kallikrein (PKK), Factor XIIa (FXIIa), Factor XIa (FXIa), Factor Xa (FXa), Factor IIa (alpha-thrombin; FIIa), plasmin, trypsin, tissue kallikrein 1 (TK1), Factor VIIa (FVIIa), or FVIIa complexed with Tissue Factor, phospholipids and CaCl2 (FVIIa/TF/PL/CaCl2) is determined using the following biochemical assays in assay buffer (100 mM Tris, 150 mM NaCL, adjusted to a pH of 7.8 with HCl, and containing 0.1% (w/v) BSA and 0.05% (v/v) Tween20) in the presence of 1% (v/v) DMSO:
Subsequently, PPACK II (Calbiochem) is added as a stop solution to achieve a final concentration of 1 μM and fluorescence is measured using an Envision Reader (PerkinElmer) with the wavelength excitation setting of 355 nm and the wavelength emission setting of 460 nm.

T1 sequence (P03952 20-390 limits assumed): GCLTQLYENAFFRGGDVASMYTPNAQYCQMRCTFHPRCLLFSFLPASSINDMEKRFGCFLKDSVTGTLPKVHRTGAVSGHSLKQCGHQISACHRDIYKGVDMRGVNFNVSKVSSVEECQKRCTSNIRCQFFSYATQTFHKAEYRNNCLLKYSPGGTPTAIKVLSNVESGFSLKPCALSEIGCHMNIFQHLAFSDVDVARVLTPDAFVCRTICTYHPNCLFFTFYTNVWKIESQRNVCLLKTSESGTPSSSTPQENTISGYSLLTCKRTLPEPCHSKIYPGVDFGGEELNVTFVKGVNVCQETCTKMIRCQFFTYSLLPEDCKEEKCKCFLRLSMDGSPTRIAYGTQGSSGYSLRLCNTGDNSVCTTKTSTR
T1 sequence (P03952 391-638 limits assumed): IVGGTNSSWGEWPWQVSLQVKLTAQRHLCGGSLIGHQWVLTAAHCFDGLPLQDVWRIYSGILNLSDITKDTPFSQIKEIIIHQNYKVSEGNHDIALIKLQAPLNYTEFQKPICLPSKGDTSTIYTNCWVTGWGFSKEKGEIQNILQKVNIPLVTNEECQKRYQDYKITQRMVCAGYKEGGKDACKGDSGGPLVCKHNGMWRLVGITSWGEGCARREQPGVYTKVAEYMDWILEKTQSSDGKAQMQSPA

Row | Compound | IC50
1 | Cc1nc(N2C[C@@]3(C)C[C@@]3(C)C2)ncc1Cn1cc(C(=O)N[C@@H]2CCc3c2ncn3C)cn1 [Example 225, 1-({2-[(1R,5S)-1,5-Dimethyl-3-azabicyclo[3.1.0]hexan-3-yl]-4-methylpyrimidin-5-yl}methyl)-N-[(4R)-1-methyl-1H,4H,5H,6H-cyclopenta[d]imidazol-4-yl]-1H-pyrazole-4-carboxamide] | 232 nM
2 | Cc1nc(N2CC3(CCC3)C2)ncc1Cn1cc(C(=O)N[C@@H]2CCc3c2ncn3C)cn1 [Example 226, 1-[(2-{2-Azaspiro[3.3]heptan-2-yl}-4-methylpyrimidin-5-yl)methyl]-N-[(4R)-1-methyl-1H,4H,5H,6H-cyclopenta[d]imidazol-4-yl]-1H-pyrazole-4-carboxamide] | 35.7 nM
3 | Cc1nc(N2CCC3CC3C2)ncc1Cn1cc(C(=O)N[C@@H]2CCc3c2ncn3C)cn1 (stereo partly drawn) [Example 227, 1-[(2-{3-Azabicyclo[4.1.0]heptan-3-yl]-4-methylpyrimidin-5-yl)methyl]-N-[(4R)-1-methyl-1H,4H,5H,6H-cyclopenta[d]imidazol-4-yl]-1H-pyrazole-4-carboxamide] | 45.3 nM
4 | Cc1nc(N2CC3CC(C2)O3)ncc1Cn1cc(C(=O)N[C@@H]2CCc3c2ncn3C)cn1 [Example 231, N-[(4R)-1-Methyl-1H,4H,5H,6H-cyclopenta[d]imidazol-4-yl]-1-[(4-methyl-2-{6-oxa-3-azabicyclo[3.1.1]heptan-3-yl}pyrimidin-5-yl)methyl]-1H-pyrazole-4-carboxamide] | 223 nM
5 | CO[C@H]1[C@@H]2CC[C@H]1CN(c1ncc(Cn3cc(C(=O)N[C@@H]4CCc5c4ncn5C)cn3)c(C)n1)C2 [Example 234, 1-({2-[(1R,5S,8R)-8-Methoxy-3-azabicyclo[3.2.1]octan-3-yl]-4-methylpyrimidin-5-yl}methyl)-N-[(4R)-1-methyl-1H,4H,5H,6H-cyclopenta[d]imidazol-4-yl]-1H-pyrazole-4-carboxamide] | 350 nM

Second part, the compound after the results:

Row | IC50 | Compound
6 | 126 nM | Cc1nc(N2CC3C(C2)C3(C)C)ncc1Cn1cc(C(=O)N[C@@H]2CCc3c2ncn3C)cn1 (stereo partly drawn) [Example 228, 1-[(2-{6,6-Dimethyl-3-azabicyclo[3.1.0]hexan-3-yl}-4-methylpyrimidin-5-yl)methyl]-N-[(4R)-1-methyl-1H,4H,5H,6H-cyclopenta[d]imidazol-4-yl]-1H-pyrazole-4-carboxamide]
7 | 110 nM | Cc1nc(N2C[C@@H]3[C@@H](C)[C@@H]3C2)ncc1Cn1cc(C(=O)N[C@@H]2CCc3c2ncn3C)cn1 [Example 229, N-[(4R)-1-Methyl-1H,4H,5H,6H-cyclopenta[d]imidazol-4-yl]-1-({4-methyl-2-[(1R,5S,6R)-6-methyl-3-azabicyclo[3.1.0]hexan-3-yl]pyrimidin-5-yl}methyl)-1H-pyrazole-4-carboxamide]
8 | 53.7 nM | Cc1nc(N2CCC3(CC3)C2)ncc1Cn1cc(C(=O)N[C@@H]2CCc3c2ncn3C)cn1 [Example 230, 1-[(2-{5-Azaspiro[2.4]heptan-5-yl}-4-methylpyrimidin-5-yl)methyl]-N-[(4R)-1-methyl-1H,4H,5H,6H-cyclopenta[d]imidazol-4-yl]-1H-pyrazole-4-carboxamide]
9 | 512 nM | Cc1nc(N2CCCC3(CC3)C2)ncc1Cn1cc(C(=O)N[C@@H]2CCc3c2ncn3C)cn1 [Example 232, 1-[(2-{5-Azaspiro[2.5]octan-5-yl}-4-methylpyrimidin-5-yl)methyl]-N-[(4R)-1-methyl-1H,4H,5H,6H-cyclopenta[d]imidazol-4-yl]-1H-pyrazole-4-carboxamide]
10 | 81.4 nM | COC1C2CC1CN(c1ncc(Cn3cc(C(=O)N[C@@H]4CCc5c4ncn5C)cn3)c(C)n1)C2 (stereo partly drawn) [Example 233, 1-[(2-{6-Methoxy-3-azabicyclo[3.1.1]heptan-3-yl}-4-methylpyrimidin-5-yl)methyl]-N-[(4R)-1-methyl-1H,4H,5H,6H-cyclopenta[d]imidazol-4-yl]-1H-pyrazole-4-carboxamide]

From patent US12479827B2, “Heteroaromatic carboxamide derivatives as plasma kallikrein inhibitors” (Boehringer Ingelheim International GmbH, priority 2020, dated 2025)
